The assay relates to BDF1 mice, B16 melanoma ip, median survival T/C. The assay can be described thus: NCI In Vivo Anticancer Drug Screen. Data for tumor model B16 Melanoma (intraperitoneal) in B6D2F1 (BDF1) mice. The settings on record: endpoint: median survival time, higher = longer survival. In outline:
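In this screen, activity was judged from survival or tumor size in treated versus vehicle-treated tumor-bearing mice, reported as T/C.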

Setting [1] is: dose: 25.0 mg/kg/injection, schedule: Q01DX009 (ip), vehicle: Klucel (hydroxypropylcellulose) (HPC).
[2] abbreviates: dose: 50.0 mg/kg/injection, schedule: Q01DX009 (ip), vehicle: Klucel (hydroxypropylcellulose) (HPC).
Setting [3] is: dose: 100.0 mg/kg/injection, schedule: Q01DX009 (ip), vehicle: Klucel (hydroxypropylcellulose) (HPC).
The mark [4] stands for this setting: dose: 0.75 mg/kg/injection, schedule: Q01DX009 (ip), vehicle: saline.
[5] abbreviates: dose: 1.5 mg/kg/injection, schedule: Q01DX009 (ip), vehicle: saline.
[6] abbreviates: dose: 1.56 mg/kg/injection, schedule: Q01DX009 (ip), vehicle: saline with Tween-80.
The mark [7] stands for this setting: dose: 200.0 mg/kg/injection, schedule: Q01DX009 (ip), vehicle: saline.
Setting [8] is: dose: 400.0 mg/kg/injection, schedule: Q01DX009 (ip), vehicle: saline.
Where [9] appears, read: dose: 100.0 mg/kg/injection, schedule: Q04DX003 (ip), vehicle: Klucel (hydroxypropylcellulose) (HPC).
Setting [10] is: dose: 200.0 mg/kg/injection, schedule: Q04DX003 (ip), vehicle: Klucel (hydroxypropylcellulose) (HPC).
[11] abbreviates: dose: 200.0 mg/kg/injection, schedule: Q01DX009 (ip), vehicle: Klucel (hydroxypropylcellulose) (HPC).
Where [12] appears, read: dose: 400.0 mg/kg/injection, schedule: Q01DX009 (ip), vehicle: Klucel (hydroxypropylcellulose) (HPC).

Several values for one entry are separate records, joined by “and”; a condition that tells them apart may be missing. Equal values may be shown once. Toxic doses and inconclusive results are not listed.

With `Cn1c2ccccc2c(=O)c2ccc(Cl)cc21`, the T/C is 97 % of control under setting [1], 97 % of control under setting [2] and 91 % of control under setting [3].
As to `[CH3][Pb]([CH3])([CH3])[Cl]`, the T/C under setting [4] was 117 % of control and the T/C under setting [5] was 103 % of control.
For `C=C1C(=O)C23[C@H](O)C1CC[C@H]2[C@]12COC3(O)[C@@H](O)[C@@H]1C(C)(C)CC[C@@H]2O`, the T/C was 105 % of control under setting [6]; 93 % of control (dose: 3.12 mg/kg/injection, schedule: Q01DX009 (ip), vehicle: saline with Tween-80); 96 % of control (dose: 6.25 mg/kg/injection, schedule: Q01DX009 (ip), vehicle: saline with Tween-80).
Take `CC12CCC3C(CCC4CC(OC(=O)Cc5ccc(N(CCCl)CCCl)cc5)CCC43C)C1CCC(=O)N2` (stereo unspecified): the T/C is, setting by setting: under setting [4], 113 % of control; (dose: 1.5 mg/kg/injection, schedule: Q01DX009 (ip), vehicle: saline with Tween-80) 110 % of control; under setting [5], 121 % of control; (dose: 3.0 mg/kg/injection, schedule: Q01DX009 (ip), vehicle: saline) 121 % of control; (dose: 12.0 mg/kg/injection, schedule: Q01DX009 (ip), vehicle: saline) 154 % of control.
On to `COc1cc([C@@H]2c3cc4c(c(O)c3C[C@H]3COC(=O)[C@@H]32)OCO4)cc(OC)c1OC`, for which the T/C reads like this: (dose: 0.12 mg/kg/injection, schedule: Q01DX009 (ip), vehicle: suspension in saline) 100 % of control; (dose: 0.25 mg/kg/injection, schedule: Q01DX009 (ip), vehicle: suspension in saline) 102 % of control; (dose: 0.5 mg/kg/injection, schedule: Q01DX009 (ip), vehicle: saline) 109 % of control; (dose: 0.5 mg/kg/injection, schedule: Q01DX009 (ip), vehicle: suspension in saline) 120 % of control; (dose: 1.0 mg/kg/injection, schedule: Q01DX009 (ip), vehicle: saline) 114 % of control; (dose: 1.0 mg/kg/injection, schedule: Q01DX009 (ip), vehicle: suspension in saline) 121 % of control.
`COC(=O)C1=CCCN(C)C1`: the T/C by setting is: (dose: 3.12 mg/kg/injection, schedule: Q01DX009 (ip), vehicle: saline) 100 % of control; (dose: 6.25 mg/kg/injection, schedule: Q01DX009 (ip), vehicle: saline) 115 % of control; (dose: 12.5 mg/kg/injection, schedule: Q01DX009 (ip), vehicle: saline) 100 % of control; (dose: 25.0 mg/kg/injection, schedule: Q01DX009 (ip), vehicle: saline) 92 % of control; (dose: 50.0 mg/kg/injection, schedule: Q01DX009 (ip), vehicle: saline) 115 % of control.
In the case of `CC(=O)Oc1ccccc1C(=O)O`, the T/C (dose: 15.7 mg/kg/injection, schedule: Q01DX009 (ip), vehicle: saline with Tween-80) is 86 % of control; the T/C (dose: 31.3 mg/kg/injection, schedule: Q01DX009 (ip), vehicle: saline with Tween-80) was 102 % of control; the T/C (dose: 62.5 mg/kg/injection, schedule: Q01DX009 (ip), vehicle: saline with Tween-80) was 97 % of control.
For `CCCC[S][Sn]([CH2]CCC)([CH2]CCC)[S]CCCC`, the T/C by setting is: (dose: 0.19 mg/kg/injection, schedule: Q01DX009 (ip), vehicle: saline with Tween-80) 98 % of control; (dose: 0.38 mg/kg/injection, schedule: Q01DX009 (ip), vehicle: saline with Tween-80) 98 % of control; (dose: 0.75 mg/kg/injection, schedule: Q01DX009 (ip), vehicle: saline with Tween-80) 99 % of control.
With `c1ccc2cc3c(cc2c1)Cn1c-3nc2ccccc21`, the T/C is, setting by setting: (dose: 178.0 mg/kg/injection, schedule: Q01DX009 (ip), vehicle: saline with Tween-80) 101 % of control; under setting [7], 124 % of control; (dose: 266.0 mg/kg/injection, schedule: Q01DX009 (ip), vehicle: saline with Tween-80) 100 % of control; (dose: 400.0 mg/kg/injection, schedule: Q01DX009 (ip), vehicle: saline with Tween-80) 90 % of control; under setting [8], 110 % of control.
`O=C(CC(O)(C(F)(F)F)C(F)(F)F)c1cccc2ccccc12`: the T/C under setting [9] is 90 % of control; the T/C under setting [10] is 95 % of control; the T/C (dose: 400.0 mg/kg/injection, schedule: Q04DX003 (ip), vehicle: Klucel (hydroxypropylcellulose) (HPC)) is 102 % of control.
For the compound `Cc1ccc(C2NC(=O)c3ccccc3N2)c(C)c1` (stereo unspecified), the T/C was 109 % of control under setting [3], 109 % of control under setting [11] and 109 % of control under setting [12].
As to `Cc1cccc(NC(=O)c2ccc(Cl)cc2)c1C`, the T/C under setting [3] was 93 % of control, the T/C under setting [11] is 89 % of control and the T/C under setting [12] was 89 % of control.
Regarding `Cc1ccc(NC(=O)c2cccc(C(=O)Nc3ccc(C)c(Cl)c3)c2)cc1Cl`, the T/C by setting is: under setting [3], 97 % of control; under setting [11], 105 % of control; under setting [12], 97 % of control.
As to `CC1=CC(=O)C=CC1=Nc1ccc(N(C)C)cc1`, the T/C reads like this: (dose: 25.0 mg/kg/injection, schedule: Q01DX009 (ip), vehicle: saline with Tween-80) 91 % of control; (dose: 50.0 mg/kg/injection, schedule: Q01DX009 (ip), vehicle: saline with Tween-80) 90 % of control.
Consider `O=C(c1ccc(O)cc1O)c1cccc2ccccc12`, for which the T/C runs as follows: under setting [3], 98 % of control; under setting [11], 98 % of control; under setting [12], 100 % of control.
`O=C(O)CNC(=O)c1ccc([N+](=O)[O-])cc1`: the T/C (dose: 100.0 mg/kg/injection, schedule: Q01DX009 (ip), vehicle: saline with Tween-80) was 89 % of control.
Regarding `CCCCCCCCCCCCCC(=O)OC12CC(C)C3(O)C(C=C(CO)C(O)C4(O)C(=O)C(C)=CC43)C1C2(C)C` (stereo unspecified), the T/C was 99 % of control (dose: 0.01 mg/kg/injection, schedule: Q01DX009 (ip), vehicle: saline + alcohol); 107 % of control (dose: 0.03 mg/kg/injection, schedule: Q01DX009 (ip), vehicle: saline + alcohol); 104 % of control (dose: 0.06 mg/kg/injection, schedule: Q01DX009 (ip), vehicle: saline + alcohol); 94 % of control (dose: 0.12 mg/kg/injection, schedule: Q01DX009 (ip), vehicle: saline + alcohol); 100 % of control (dose: 0.13 mg/kg/injection, schedule: Q01DX009 (ip), vehicle: saline + alcohol).
As for `C=C(C)C(=O)OCC1CO1` (stereo unspecified), the T/C runs as follows: under setting [2], 102 % of control; under setting [3], 100 % of control; under setting [11], 109 % of control.
For `O=C1CSC2=NCCN12`, the T/C was 99 % of control (dose: 50.0 mg/kg/injection, schedule: Q01DX009 (ip), vehicle: suspension in saline); 113 % of control (dose: 100.0 mg/kg/injection, schedule: Q01DX009 (ip), vehicle: suspension in saline); 111 % of control (dose: 200.0 mg/kg/injection, schedule: Q01DX009 (ip), vehicle: suspension in saline).
As to `COc1ccc2c(c1)C(=O)CC=C(C(=O)O)N2`, the T/C is 100 % of control (dose: 100.0 mg/kg/injection, schedule: Q01DX009 (ip), vehicle: saline); 88 % of control (dose: 100.0 mg/kg/injection, schedule: Q04DX003 (ip), vehicle: saline with Tween-80); 96 % of control under setting [7]; 93 % of control (dose: 200.0 mg/kg/injection, schedule: Q04DX003 (ip), vehicle: saline with Tween-80); 98 % of control under setting [8]; 95 % of control (dose: 400.0 mg/kg/injection, schedule: Q04DX003 (ip), vehicle: saline with Tween-80).
`O=C(O)c1cccnc1`: the T/C by setting is: (dose: 12.5 mg/kg/injection, schedule: Q01DX009 (ip), vehicle: Klucel (hydroxypropylcellulose) (HPC)) 112 % of control; under setting [1], 105 % of control; under setting [2], 97 % of control; under setting [3], 100 % of control.
Regarding `O=CNC(CSC(c1ccccc1)c1ccccc1)C(=O)O` (stereo unspecified), the T/C (dose: 50.0 mg/kg/injection, schedule: Q04DX003 (ip), vehicle: Klucel (hydroxypropylcellulose) (HPC)) is 105 % of control; the T/C under setting [9] is 100 % of control; the T/C under setting [10] was 94 % of control.
In the case of `CCc1cccc(CC)c1N1C(=O)C=CC1=O`, the T/C is 97 % of control (dose: 0.2 mg/kg/injection, schedule: Q01DX009 (ip), vehicle: saline with Tween-80); 99 % of control (dose: 0.39 mg/kg/injection, schedule: Q01DX009 (ip), vehicle: saline with Tween-80); 92 % of control (dose: 0.78 mg/kg/injection, schedule: Q01DX009 (ip), vehicle: saline with Tween-80); 86 % of control and 90 % of control under setting [6].

The values are drawn from PubChem BioAssay AID192 (DTP/NCI, 2004).
